Source: US11998665B2, “Biodegradable ureteral stents, methods and uses thereof” (ASSOCIATION FOR THE ADVANCEMENT OF TISSUE ENGINEERING AND …, priority 2016, dated 2024)
Converted amounts (≈) assume the structure as drawn. Where two headings read alike, the source gives them in different places.

Assays:
[1] = tested on: HUVEC cells (human umbilical vein endothelial cells); experiment: MTT cell viability, free anti-cancer drugs, IC50 determination in HUVEC cells; type: cell-based
Protocol: (§1) In an embodiment, the present disclosure used a human urothelial carcinoma cell line, T24 (ATCC, U.S.A.) as a cancer cell line to model the urothelial carcinoma and human umbilical vein endothelial cells, HUVEC, (ATCC, U.S.A.) as a control, non-cancerous cell line. The T24 cell line and HUVEC cells were cultured in RPMI-1640 and EGM™-2 medium, respectively, with (10% fetal bovine serum (FBS), 1 mM L-glutamine and 1% penicillin/streptomyocin), Cells were maintained at 37° C. in a humidified 5% CO2 atmosphere.
(§2) In an embodiment, in vitro efficacy of anti-cancer drugs against T24 cells and HUVEC cells-IC50 determination. The cytotoxicity of paclitaxel, epirubicin, doxorubicin and gemcitabine was evaluated by determining the viability of T24 and HUVEC cells after exposure to medium containing the free drug at a range of concentrations from 0.01 to 2000 ng/ml. Free drugs in medium were prepared by first dissolving the anticancer drugs in DMSO (50 mg/ml) and this solution was then diluted in culture medium to achieve the desired concentration. A standard MTT cell proliferation assay (CellTiter 96® Aqueous One Solution Cell Proliferation Assay) was used to test cell viability and was performed on both cell lines to determine the half maximal inhibitory concentration (1050) of each drug. 5000 cells per well were seeded in a 96-well plate with 100 μl medium for T24 and HUVEC cells. After incubation for 24 h, the medium in each well was aspirated off and the cells were exposed to 100 μl of fresh medium containing the drugs at various concentrations for 4 h and 72 h. The cells after 4 h treatment were further cultured for 72 h in fresh (drug-free) medium. After that, the culture medium in each well was replaced by 100 μl of medium and 20 μl of CellTiter 96® AQueous One Solution Reagent, followed by 4 h incubation at 37° C. A latex rubber extract was used as negative control for cell death; while cell culture medium was used as positive control. Cell viability was quantified by UV-spectroscopy, reading the formazan absorbance at 490 nm in a microplate reader (SpectraMax i3, Molecular Devices, USA). Each sample formulation and control was tested using 12 replicates.
(§3) In an embodiment, the 1050 was determined from the fitting of the curve of cell viability, measured by MTT and the drug concentration. The fitting was performed using GraphPad software (GraphPad Prism 6.00 software, San Diego, USA).
(§4) In an embodiment, the effect of the anti-cancer drugs (IC50) when in contact with T24 and HUVEC cells was investigated by a cell viability test, namely the MTT assay. From this, the IC50 was calculated for each of the four drugs in each of the two cell lines. In this case, IC50 is a measure of the concentration needed to inhibit cell survival, and is routinely used to specify the in vitro potency of a drug (Sebaugh, 2011). The T24 cell line was chosen as a muscle invasive urothelial cancer and the HUVEC cells were used as non-cancerous control cells. The cytotoxicity evaluation was carried out either after 4 h or 72 h of exposure of the cells to the free drugs at different concentrations (FIGS. 5 A and B). […] In FIGS. 5 (A and B) it is possible to see, for both cell types the trend of concentration-dependent cytotoxicity. These are similar, in all cases and as it would be expected the 72 h exposure present a higher killing efficacy. Comparing the results between the two cells it is possible to conclude that the cancer cells are much more sensitive to the anti-cancer drugs compared with the HUVEC cells.

[2] = Quantity of drug impregnated in stents by scCO2 (UV-spectroscopy after degradation in AUS); type: physicochemical; conditions: for Quantity of drug impregnated by scCO2: 90 min, 100 bar, 40° C.; for increase in the impregnation yield when ethanol was used as a co-solvent: DrugEtOH versus pure scCO2; for % loaded: amount of drug impregnated by scCO2 in BUS
Protocol: In an embodiment, a supercritical CO2 impregnation of anti-cancer drugs was performed, in the biodegradable ureteral stents (BUS) of the present disclosure. The were biodegradable ureteral stents prepared were placed in high-pressure vessel with anti-cancer drugs (10 mg) according to FIG. 2. The anti-cancer drugs were impregnated in the stents with and without the presence of a co-solvent. The scCO2 impregnation conditions used were 100 bar at 40° C. and 90 min. Carbon dioxide was liquefied and pumped to the desired pressure using a membrane pump (MCPV-71, Haskel, Germany). Impregnation took place in batch mode for 90 min followed by fast depressurization of the system. When a co-solvent was employed, 10% (v/v) ethanol was used. A commercial non-degradable ureteral stent (Biosoft® duo, Porges, Coloplast) was impregnated with same drugs at the same conditions with co-solvent, to be used as a control. To enhance the mechanical properties of the stent a PCL coating was applied. To evaluate the effect of coating on the release of the drugs the condition BUS+Co-Solvent was prepared twice and one of this batches was coated with PCL resin.
The anticancer drugs impregnation yield (I) was calculated from Eq. (1): I(%)=mdrug/mstent+mdrug×100 Eq. (1) where mstent is the polymer mass at the beginning of the process and the mdrug is the mass of the respective anticancer drug released after complete degradation of the stents in AUS. Anti-cancer drugs concentration was calculated from a calibration curve prepared from standard solutions. The samples were analyzed by UV-spectroscopy using a microplate reader (SpectraMax i3, Molecular Devices, USA) at the maximum absorbance for each drug (227 nm for PA, 254 nm for EP and DOX and 268 nm for GEM). All the experiments were performed in triplicate.
In an embodiment, impregnation efficiency of anti-cancer drugs in the biodegradable ureteral stents (BUS) was determined as a function of mass (μg) of anti-cancer drugs per mass (mg) of the polymer. In the DrugEtOH conditions, the amount of anti-cancer drug impregnated in the stents is higher, as it would be expected due to the co-solvent effect of ethanol in the enhancement of drug the solubility in CO2. The amount of impregnated paclitaxel in pure scCO2 (PAbio) was 0.046 μg mg-1, whereas those in PAEtOH condition was […] (0.067 μg mg-1). A similar percentage was reported by Yoda et al. (Yoda et al., 2011) in which the authors report the impregnation of paclitaxel in an amorphous poly(DL-lactic acid) (PDLLA) matrix. The amount of paclitaxel impregnated by Yoda et al. in PDLLA was 2-3 times higher compared with the alginate/gelatin matrix obtained in this work. This can be justified by the higher affinity of the drug-CO2 solution in the hydrophobic PDLLA matrix (Kazarian, 2000). Furthermore, PDLLA may also have greater swelling in the presence of scCO2 than the alginate/gelatin polymer blend (Cooper, 2000; Yoda et al., 2011). […] In the case of the Biosoft® duo, Porges, Coloplast stents the amount of drug impregnated is 6-times lower compared with BUS impregnated with paclitaxel under the same conditions. The lower amount of drug impregnated can be related with lower swelling ability of the polymeric matrix of the commercial stent in scCO2 and/or by lower affinity of the drugs with composition material of the Biosoft® duo, Porges, Coloplast stent.

[3] = tested on: T24 cells (human urothelial carcinoma cell line); experiment: MTT cell viability, free anti-cancer drugs, IC50 determination in T24 cells; type: cell-based
Protocol: as §1, §2, §3, §4

T24 cancer cells = conditions: cited from earlier work
[4] = 4 h exposure then 72 h in drug-free medium
[5] = DrugCom: commercial non-degradable stent with co-solvent
[6] = DrugETOH: BUS + 10% ethanol co-solvent
[7] = Drugbio: BUS without co-solvent
[8] = T-24, 4 h exposure then 72 h in drug-free medium

Row | Quantity of drug impregnated by scCO2 [2, 5] [μgdrug/mgpolymer] | Quantity of drug impregnated by scCO2 [2, 6] [μgdrug/mgpolymer] | Quantity of drug impregnated by scCO2 ([2]; DrugETOH: BUS + 10% ethanol co-solvent, listed as gemcitabine) [μgdrug/mgpolymer] | increase in the impregnation yield when ethanol was used as a co-solvent [2] [%] | Quantity of drug impregnated by scCO2 [2, 7] [μgdrug/mgpolymer] | % loaded [2] [%] | IC50 [3, 8] [µg/mL] | IC50 ([3]; T-24, 72 h exposure) [µg/mL] | SMILES | IC50 [1, 4] [µg/mL] | IC50 ([1]; 72 h exposure) [µg/mL] | IC50 (T24 cancer cells; doxorubicin, T24 cancer cells, Lu et al., 2015a) [µg/mL] | IC50 (T24 cancer cells; doxorubicin, T24 cancer cells, Yu et al., 2015) [µg/mL] | IC50 (T24 cancer cells; paclitaxel, Hadaschik et al., 2008) [µg/mL]
1 | 2.312 | 19.572 | 19.57 | 8 | 18.183 | 2 | 99 ± 1.29 (≈ 376 µM) | 0.89 ± 0.27 (≈ 3.38 µM) | Nc1ccn([C@@H]2O[C@H](CO)[C@@H](O)C2(F)F)c(=O)n1 [Gemcitabine, gemcitabine] | 413.6 ± 2.68 (≈ 1570 µM) | 237 ± 16.7 (≈ 901 µM) | – | – | –
2 | 0.208 | 3.748 | – | 12 | 3.297 | – | 187 ± 5.18 (≈ 344 µM) | 29.3 ± 10 (≈ 53.9 µM) | COc1cccc2c1C(=O)c1c(O)c3c(c(O)c1C2=O)C[C@@](O)(C(=O)CO)C[C@@H]3O[C@H]1C[C@H](N)[C@H](O)[C@H](C)O1 [Doxorubicin, doxorubicin] | 2150 ± 58.2 (≈ 3950 µM) | 647 ± 21.4 (≈ 1190 µM) | 0.0116 (≈ 0.0213 µM) | 4 (≈ 7.36 µM) | –
3 | 0.014 | 0.067 | – | – | 0.046 | 0.01 | 0.282 (≈ 0.33 µM) | 0.0073 (≈ 0.00855 µM) | CC(=O)O[C@H]1C(=O)[C@@]2(C)[C@H]([C@H](OC(=O)c3ccccc3)[C@]3(O)C[C@H](OC(=O)[C@H](O)[C@@H](NC(=O)c4ccccc4)c4ccccc4)C(C)=C1C3(C)C)[C@]1(OC(C)=O)CO[C@@H]1C[C@@H]2O [Paclitaxel, paclitaxel] | 0.85 (≈ 0.995 µM) | 0.502 (≈ 0.587 µM) | – | – | 0.00285 (≈ 0.00334 µM)
4 | 0.118 | 1.779 | – | 15 | 1.498 | – | 67 ± 2.34 (≈ 123 µM) | 15.7 ± 1.02 (≈ 29 µM) | COc1cccc2c1C(=O)c1c(O)c3c(c(O)c1C2=O)C[C@@](O)(C(=O)CO)C[C@@H]3O[C@H]1C[C@H](N)[C@@H](O)[C@H](C)O1 [Epirubicin, epirubicin] | 2050 ± 33.2 (≈ 3770 µM) | 139 ± 13.6 (≈ 256 µM) | – | – | –
